Patent US20080090728A1, “Method for Improving Plant Growth” (BAYER CROPSCIENCE AG, priority 2004, published 2008)

Legend:
[1] = system: Eucalyptus seedlings (E. globulus); assay: Field trial, height of treated Eucalyptus seedlings (growth effect); format: in vivo; conditions: for Average height (cm): E. globulus seedlings
Excerpt: (§1) A synergistic effect is always present when the growth effect of the combinations according to the invention exceed the total of the activities of the active compounds when applied individually. The expected activity for a given combination of two active compounds can be calculated as follows (cf. Colby, S.R., “Calculating Synergistic and Antagonistic Responses of Herbicide Combinations”, Weeds 15, (1967), 20-22): If • X is the growth effect when applying one compound selected from the class of agonists and antagonists of the nicotinic acetylcholine receptors at an application rate of m g/ha, • Y is the growth effect when applying fertilizer at an application rate of n g/ha and • E is the efficacy when applying the combination of A and B at an application rate of m and n g/ha, then [formula] The efficacy is calculated in %. 0% is an efficacy which corresponds to that of the control. If the actual growth effect exceeds the calculated value, then the activity of the combination is super additive, i.e. a synergistic effect exists. In this case, the efficacy which was actually observed must be greater than the value for the expected efficacy (E) calculated from the abovementioned formula. The trial was established using a Latin square design (4 treatments with 4 replications each) with 49 ligneous trees per plot for a total of 784 trees in the trial. Trees: Eucalyptus seedlings (E. globulus) The four treatments used were 1) control (nil treatment) 2) fertilizer only 3) insecticide (i.e. imidacloprid) only 4) insecticide (i.e. imidacloprid) plus fertilizer Bonitation of insect infestation and measurement of the height of the treated trees was done 7 months and 12 months after the trial has been started (start of trial: August 2003, bonitations: March 2004 and August 2004) All results are statistically evaluated having a significance level of 5% . Besides the mean value comparison the Fisher's PLSD test has been applied.

insect infestation = assay: Field trial, bonitation of insect infestation (defoliation by insect damage) on Eucalyptus seedlings; format: in vivo
Excerpt: as §1

[2] = Bonitation August 2004, 12 months after start of trial
[3] = Bonitation March 2004, 7 months after start of trial

O=[N+]([O-])NC1=NCCN1Cc1ccc(Cl)nc1 [imidacloprid only, Imidacloprid]
Height of tree (% of control) [1, 2]: 104 % of control | Average height (cm) [1, 2]: 125 cm | Height of tree (% of control) [1, 3]: 115 % of control | Average height (cm) [1, 3]: 86 cm | Average defoliation by insect damage (%) (insect infestation; [2]): 60% | Efficacy according to Abbott (%) (insect infestation; [2]): 40% | Average defoliation by insect damage (%) (insect infestation; [3]): 18% | Efficacy according to Abbott (%) (insect infestation; [3]): 71%
